Results taken from US20230391765A1, “HETEROBIFUNCTIONAL COMPOUNDS AS DEGRADERS OF ENL” (ICAHN SCHOOL OF MEDICINE AT MOUNT SINAI, priority 2020, published 2023).

How the values were obtained:
ENL target genes = assay: RT-qPCR of ENL target genes in MOLM13 cells; assay type: cell-based
Procedure: MOLM13 cells were treated with LQ076-122 (FIG. 14A) and LQ081-108 (FIG. 14B) at 0.5, 1, 2, 4, and 8 μM for 24 h. […] RT-qPCR analysis was performed to detect the mRNA levels of selected ENL target genes.
Total RNA was extracted using the RNeasy Plus kit (Qiagen) and reverse-transcribed using the iScript cDNA Synthesis kit (Bio-Rad). RT-qPCR was performed using the Power SYBR Green PCR Master Mix (Applied Biosystems) on the CFX96 Real-Time PCR system (Bio-Rad). Gene expressions were calculated following normalization to 18s rRNA amounts using the comparative cycle threshold (Ct) method.

ENL [1] = target: T1, ENL (Homo sapiens, UniProt Q03111); assay: Western blot of ENL protein levels in MV4; 11 cells; assay type: cell-based
T1 construct: Cells were lysed and expression of endogenous ENL was assessed by Western blot analysis; host or cells: MV4;11
T1 sequence (Q03111 1-559): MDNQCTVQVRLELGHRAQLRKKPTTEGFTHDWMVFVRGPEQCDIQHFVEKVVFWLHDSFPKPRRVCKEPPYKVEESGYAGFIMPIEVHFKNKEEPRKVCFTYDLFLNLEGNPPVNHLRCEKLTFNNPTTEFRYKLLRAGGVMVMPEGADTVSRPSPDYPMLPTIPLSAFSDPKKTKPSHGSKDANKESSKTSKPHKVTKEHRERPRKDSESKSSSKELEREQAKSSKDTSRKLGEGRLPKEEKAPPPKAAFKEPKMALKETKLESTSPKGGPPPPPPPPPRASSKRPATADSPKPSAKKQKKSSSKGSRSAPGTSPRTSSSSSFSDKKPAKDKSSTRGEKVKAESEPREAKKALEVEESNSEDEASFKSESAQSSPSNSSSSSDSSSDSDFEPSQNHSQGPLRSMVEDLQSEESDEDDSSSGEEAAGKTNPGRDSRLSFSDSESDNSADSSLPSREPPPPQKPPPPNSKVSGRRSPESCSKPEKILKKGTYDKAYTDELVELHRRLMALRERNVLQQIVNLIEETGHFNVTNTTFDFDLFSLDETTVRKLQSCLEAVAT
Outline: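 MV4;11 cells treated versus DMSO at 1 and 10 μM for 24 h or 6 h, or at 0.3-30 μM for 24 h; time course at 4 μM over 12-36 h. Proteasome dependence tested with 1 μM degrader ± 1 μM MG132 for 6 h. ENL (and GAS41) levels in total lysates assessed by Western blot with GAPDH/β-actin loading controls.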

[2] = test system: ENL-dependent MV4; 11 cells; assay: Cell viability (CellTiter-Glo), MV4; 11 cells; assay type: cell-based; settings: 11 cells, 0.5, 1, 2 and 4 μM for 72 h
Procedure: (§1) MV4; 11 (FIG. 13A), MOLM13 (FIG. 13B) and Jurkat (FIG. 13C) cells were seeded at 2×10^5 cells/mL density and treated with DMSO or indicated compounds 0.5, 1, 2 and 4 μM for 72 h. Cell viability was measured using CellTiter-Glo reagent (Promega) and relative cell viability was calculated by normalization to DMSO samples.
ENL-dependent MV4; 11 cells were seeded at 2×10^5 cells/mL density and treated with DMSO or the indicated compounds at 0, 1.25, 2.5, 5 and 10 μM for 72 h. Cell viability was measured using CellTiter-Glo reagent (Promega) and relative cell viability was calculated by normalization to DMSO samples.
(§2) ENL-dependent MV4; 11 and ENL-independent Jurkat cells were seeded at 2×10^5 cells/mL density and treated with DMSO or indicated compounds at 10 nM, 100 nM, 1 μM and 10 μM for 3 days (A) or 6 days (B). Cell viability was measured using CellTiter-Glo reagent (Promega) and relative cell viability was calculated by normalization to DMSO samples.
(§3) MV4; 11 or MOLM13 cells were seeded at 0.2×10^6 cells/mL density. Cells were treated with DMSO or ENL degraders at indicated concentrations. Each treatment was done in triplicates. After 72 h treatment, 100 μL of cell suspension from each treatment was mixed with 25 μL of CellTiter-Glo reagent (Promega) and incubated for 10 min before the luminescence signals were detected on a plate reader.

[3] = test system: ENL-dependent MOLM13 leukemia cells; assay: Cell viability (CellTiter-Glo), MOLM13 cells; assay type: cell-based; settings: MOLM13 cells, 0.5, 1, 2 and 4 μM for 72 h
Procedure: as §1, §3

[4] = test system: ENL-independent Jurkat cells; assay: Cell viability (CellTiter-Glo), Jurkat cells; assay type: cell-based; settings: Jurkat cells, 0.5, 1, 2 and 4 μM for 72 h
Procedure: as §1, §2

ENL [5] = target: T1, ENL; assay: Western blot of ENL protein levels in MOLM13 cells; assay type: cell-based; settings: 0-8 μM for 24 h
Procedure: MOLM13 cells were treated with LQ076-122 or LQ081-108 at 0, 0.25, 0.5, 1, 1.5, 2, 2.5, 3, 4 and 8 μM for 24 h.
MOLM13 cells were treated with DMSO or 8 μM of LQ076-122 for 12, 16, 20, 24 and 36 h.
MV4; 11, MOLM13 and Jurkat cells were treated with LQ108-69, LQ108-71, LQ108-72, LQ126-62 and LQ126-63 at 0, 1 nM, 10 nM, 100 nM, 1 μM, and 10 μM doses for 6 h. DMSO was used as negative control.
ENL degraders were dissolved in DMSO. DMSO with no degraders was used as the control. 1×10^6 leukemia cells were seeded in 5 mL medium. For prescreening of compounds, each test compound was added to the medium at 1 μM and 10 μM. Cells were collected after 24 h treatment. For the concentration-dependent treatment, candidate compounds were added to the medium at a series of concentration as indicated in figures. Cells were collected after 24 h treatment. For the time-course treatment, candidate compounds were added to the medium at a final concentration of 4 μM (MV4; 11 cells) or 8 μM (MOLM13 cells). Cells were collected at the indicated timepoints (in hours: 12, 16, 20, 24 and 36 h).
After ENL degrader treatment, cells were collected, lysed, and total cell lysates were used for Western blot. The following primary antibodies were used: ENL (Cell Signaling Technology), GAS41 (Santa Cruz), GAPDH (Santa Cruz), β-actin (Sigma). Blots were detected using HRP-conjugated secondary antibodies.

MOLM13 cells = assay: Apoptosis assay (FITC Annexin V), MOLM13 cells; assay type: cell-based; settings: MOLM13 cells, 1, 2 and 4 μM for 24 h
Procedure: (§4) Apoptotic cells were measured by the FITC Annexin V Apoptosis Detection Kit (BD Biosciences).
(§5) MV4; 11 or MOLM13 cells were seeded at 0.2×10^6 cells/mL density. Cells were treated with DMSO or ENL degraders at indicated concentrations. Each treatment was done in triplicates. After 24 h treatment, cells were collected and washed with ice-cold PBS once and resuspended in 250 μL of 1× binding buffer containing 5 μL of FITC-Annexin V and PI (BD Biosciences). After 15 min incubation at room temperature in the dark, 250 μL of 1× binding buffer was added and flow cytometry analysis was performed.

[6] = test system: ENL-dependent MLL-rearranged leukemia cells; settings: cited from earlier work
MV4; 11 cells = assay: Apoptosis assay (FITC Annexin V), MV4; 11 cells; assay type: cell-based; settings: 11 cells, 1, 2 and 4 μM for 24 h
Procedure: as §4, §5

[7] = 11 cells, 0.3, 1, 3 and 10 μM for 12 and 24 h

SMILES: Cc1ncsc1-c1ccc([C@H](C)NC(=O)[C@H]2C[C@H](O)CN2C(=O)[C@@H](NC(=O)CCCCCCCCCCNC(=O)c2ccc(C(=O)Nc3ccc4[nH]c(CN5CCC[C@@H]5C)nc4c3)cc2)C(C)(C)C)cc1 [LQ081-106]
- ENL target gene expression (mRNA levels) (ENL target genes; MOLM13 cells, 8 μM for 24 h): did not dramatically affect these genes
- reduction of ENL protein levels (ENL [1]; [7]): did not affect ENL protein levels
- suppression of cell growth (relative cell viability) [2]: did not significantly affect cell growth
- suppression of cell growth (relative cell viability) [3]: did not significantly affect cell growth
- suppression of cell growth (relative cell viability) [4]: did not significantly affect cell growth

SMILES: Cc1ncsc1-c1ccc(CNC(=O)[C@H]2C[C@H](O)CN2C(=O)[C@@H](NC(=O)CCCCCCCCCCNC(=O)c2ccc(C(=O)Nc3ccc4[nH]c(CN5CCC[C@@H]5C)nc4c3)cc2)C(C)(C)C)cc1 [LQ081-107]
- ENL target gene expression (mRNA levels) (ENL target genes; MOLM13 cells, 8 μM for 24 h): did not dramatically affect these genes
- reduction of ENL protein levels (ENL [1]; [7]): did not affect ENL protein levels

SMILES: Cc1ncsc1-c1ccc([C@H](C)NC(=O)[C@@H]2C[C@@H](O)CN2C(=O)[C@@H](NC(=O)CCCCCCCCCCNC(=O)c2ccc(C(=O)Nc3ccc4[nH]c(CN5CCC[C@@H]5C)nc4c3)cc2)C(C)(C)C)cc1 [LQ081-108, N^1-(11-(((S)-1-((2S,4R)-4-hydroxy-2-(((S)-1-(4-(4-methylthiazol-5-yl)phenyl)ethyl)carbamoyl)pyrrolidin-1-yl)-3,3-dimethyl-1-oxobutan-2-yl)amino)-11-oxoundecyl)-N^4-(2-(((S)-2-methylpyrrolidin-1-yl)methyl)-1H-benzo[d]imidazol-5-yl)terephthalamide]
- ENL target gene expression (mRNA levels) (ENL target genes; MOLM13 cells, 0.5, 1, 2, 4 and 8 μM for 24 h): reduced ENL target gene expression in a concentration-dependent manner
- reduction of ENL protein levels (ENL [1]; 11 cells, 0-8 μM for 24 h): reduced ENL protein levels in a concentration-dependent manner
- reduction of ENL protein levels (ENL [1]; 11 cells, 10 μM, 24 h): effective in reducing ENL protein levels
- reduction of ENL protein levels (ENL [1]; [7]): reduced ENL protein levels in a concentration- and time-dependent manner
- suppression of cell growth (relative cell viability) [2]: selectively suppressed cell growth
- suppression of cell growth (relative cell viability) [3]: selectively suppressed cell growth
- reduction of ENL protein levels (ENL [5]): reduced ENL protein levels in a concentration-dependent manner

SMILES: Cc1ncsc1-c1ccc([C@H](C)NC(=O)[C@@H]2C[C@@H](OCc3ccccc3)CN2C(=O)[C@@H](NC(=O)CCCCCCCCCCNC(=O)c2ccc(C(=O)Nc3ccc4[nH]c(CN5CCC[C@@H]5C)nc4c3)cc2)C(C)(C)C)cc1 [LQ108-141]
- suppression of cell growth (relative cell viability) [2]: did not significantly affect cell growth
- suppression of cell growth (relative cell viability) [3]: did not significantly affect cell growth
- suppression of cell growth (relative cell viability) [4]: did not significantly affect cell growth

SMILES: Cc1ncsc1-c1ccc([C@H](C)NC(=O)C2C[C@@H](OCc3ccccc3)CN2C(=O)[C@@H](NC(=O)CCCCCCCCCCCNC(=O)c2ccc(C(=O)Nc3ccc4[nH]c(CN5CCC[C@@H]5C)nc4c3)cc2)C(C)(C)C)cc1 (stereo partly drawn) [LQ108-142]
- suppression of cell growth (relative cell viability) [2]: did not significantly affect cell growth
- suppression of cell growth (relative cell viability) [3]: did not significantly affect cell growth
- suppression of cell growth (relative cell viability) [4]: did not significantly affect cell growth

SMILES: C[C@H]1CCCN1Cc1nc2cc(NC(=O)c3ccc4c(cnn4C)c3)ccc2[nH]1 [SGC-iMLLT, reference compound]
- ENL target gene expression (mRNA levels) (ENL target genes; MOLM13 cells, 8 μM for 24 h): did not dramatically affect these genes
- induction of apoptosis (MOLM13 cells): but not the negative control compound LQ108-4 or SGC-iMLLT, induced apoptosis
- inhibition of cell growth [6]: largely ineffective in inhibiting the growth
- induction of apoptosis (MV4; 11 cells): but not the negative control compound LQ108-4 or SGC-iMLLT, induced apoptosis
